EC50 data for 12 molecules are collected here from patent publication US20230045421A1 (priority 2018, published 2023).

One test concerns HBV rcDNA. Put plainly: HepDE19 assay with bDNA quantitation of HBV rcDNA. The following applies: HepDE19 assay, inhibition of formation of rcDNA; read-out: DE-19bDNA EC50. Type of test: cell-based, hepatitis B virus. In a few lines: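 Compounds, top concentration 25 μM in 8-point duplicate series, were applied to Tet-free HepDE19 cultures for 7 days. Branched-DNA quantitation of HBV rcDNA against untreated wells gave EC50 and EC90 by 4-parameter fit. Viability (CC50) came from ATP luminescence on parallel plates incubated 4 days.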
Consider `CC(c1c[nH]c(=O)c2ccc(F)cc12)N(C)C(=O)Nc1ccc(F)c(Cl)c1` (single isomer, unassigned) [Compound 170, 3-(3-Chloro-4-fluorophenyl)-1-(1-(6-fluoro-1-oxo-1,2-dihydroisoquinolin-4-yl)ethyl)-1-methylurea], for which the EC50 stood at 30 nM. As for `COc1ccc2c(=O)[nH]cc(C(C)N(C)C(=O)Nc3ccc(F)c(Cl)c3)c2c1` (single isomer, unassigned) [Compound 180, 3-(3-Chloro-4-fluorophenyl)-1-(1-(6-methoxy-1-oxo-1,2-dihydroisoquinolin-4-yl)ethyl)-1-methylurea], the EC50 stood at 1400 nM. For the molecule `CCN(C(=O)Nc1ccc(F)c(Cl)c1)C(C)c1cnc(OC)c2ccccc12` (single isomer, unassigned) [Compound 23, 3-(3-Chloro-4-fluorophenyl)-1-ethyl-1-(1-(1-methoxyisoquinolin-4-yl)ethyl)urea], the EC50 was determined as 270 nM. For the molecule `CC(c1cnc(NCc2cn[nH]n2)c2ccccc12)N(C)C(=O)Nc1ccc(F)c(Cl)c1` (single isomer, unassigned) [Compound 262, 1-(1-(1-(((2H-1,2,3-Triazol-4-yl)methyl)amino)isoquinolin-4-yl)ethyl)-3-(3-chloro-4-fluorophenyl)-1-methylurea], the EC50 was found to be 150 nM.

As for `CC(c1cnc(NCc2nc[nH]n2)c2ccccc12)N(C)C(=O)Nc1ccc(F)c(Cl)c1` (single isomer, unassigned) [Compound 248, 1-(1-(1-(((1H-1,2,4-Triazol-3-yl)methyl)amino)isoquinolin-4-yl)ethyl)-3-(3-chloro-4-fluorophenyl)-1-methylurea], the EC50 came out at 9100 nM. With `CC(c1c[nH]c(=O)c2ccccc12)N(C[C@@H]1CCCO1)C(=O)Nc1ccc(F)c(Cl)c1` (single isomer, unassigned) [Compound 161], the EC50 turned out to be 150 nM.

Staying with this test, now noted: HepDE19 assay, inhibition of formation of relaxed circular DNA (rcDNA), bDNA quantitation; read-out: DE-19bDNA EC50.
For the molecule `CC(c1c[nH]c(=O)c2ccc(F)cc12)N(CC1COC(C)(C)OC1)C(=O)Nc1ccc(F)c(Cl)c1` (single isomer, unassigned) [Compound 282, 3-(3-Chloro-4-fluorophenyl)-1-((2,2-dimethyl-1,3-dioxan-5-yl)methyl)-1-(1-(6-fluoro-1-oxo-1,2-dihydroisoquinolin-4-yl)ethyl)urea], the EC50 worked out at 4000 nM.

For `CC(c1c[nH]c(=O)c2cc(F)ccc12)N(CCS(N)(=O)=O)C(=O)Nc1ccc(F)c(Cl)c1` (single isomer, unassigned) [Compound 384, 2-(3-(3-Chloro-4-fluorophenyl)-1-(1-(7-fluoro-1-oxo-1,2-dihydroisoquinolin-4-yl)ethyl)ureido) ethane-1-sulfonamide], the EC50 worked out at 10 nM.

As to `CC(c1c[nH]c(=O)c2cc(F)c(F)cc12)N(C)C(=O)NCc1cc(F)c(F)c(F)c1` (single isomer, unassigned) [Compound 482, 1-(1-(6,7-Difluoro-1-oxo-1,2-dihydroisoquinolin-4-yl)ethyl)-1-methyl-3-(3,4,5-trifluorobenzyl)urea], the EC50 is 11000 nM.

The test is the same for the next values; noted with them: Hepatitis B virus, HepDE19, HepDE19 assay, inhibition of formation of rcDNA; read-out: DE-19bDNA EC50.
`CC(c1c[nH]c(=O)c2ccccc12)N(C[C@H]1CC[C@@H](O)CC1)C(=O)Nc1ccc(F)c(Cl)c1` (mixture of isomers) [Compound 225, cis-3-(3-Chloro-4-fluorophenyl)-1-((4-hydroxycyclohexyl)methyl)-1-(1-(1-oxo-1,2-dihydroisoquinolin-4-yl)ethyl)urea]: the EC50 was found to be 80 nM. Regarding `COc1ncc(C(C)N(CCCO)C(=O)Nc2ccc(F)c(Cl)c2)c2ccccc12` (single isomer, unassigned) [Compound 140, 3-(3-Chloro-4-fluorophenyl)-1-(3-hydroxypropyl)-1-(1-(1-methoxyisoquinolin-4-yl)ethyl)urea], the EC50 is 230 nM. Take `CC(c1c[nH]c(=O)c2ncccc12)N(C)C(=O)Nc1ccc(F)c(Cl)c1` (stereo not drawn) [Compound 153, 3-(3-chloro-4-fluorophenyl)-1-methyl-1-(1-(8-oxo-7,8-dihydro-1,7-naphthyridin-5-yl)ethyl)urea]: the EC50 is 870 nM.
